Assay results from patent US12637471B2, “Heterocyclic compounds, compositions, methods of preparation and uses thereof” (Organon R&D Finland Ltd, priority 2021, dated 2026).

Legend:
Type in all cases: biochemical
[1] = biological target: T1, Recombinant human AKR1C3 (17β-HSD5) protein (Homo sapiens, UniProt P42330); experiment: Inhibition of AKR1C3 (17β-hydroxysteroid dehydrogenase type 5) enzyme, fluorescence assay; details: inhibitor at 500 nM
T1 construct: made in house; host or cells: E. coli
T1 sequence (P42330 1-323): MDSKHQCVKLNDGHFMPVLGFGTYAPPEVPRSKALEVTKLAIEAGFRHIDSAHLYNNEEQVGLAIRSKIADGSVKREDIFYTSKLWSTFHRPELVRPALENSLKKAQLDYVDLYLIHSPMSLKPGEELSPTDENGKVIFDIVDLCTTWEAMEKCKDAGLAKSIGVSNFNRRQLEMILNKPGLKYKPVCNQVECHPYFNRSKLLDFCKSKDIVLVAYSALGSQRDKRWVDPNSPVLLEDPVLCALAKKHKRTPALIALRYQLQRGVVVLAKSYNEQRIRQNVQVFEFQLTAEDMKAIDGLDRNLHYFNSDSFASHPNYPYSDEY
Method: Inhibition of AKR1C3 (17β-Hydroxysteroid Dehydrogenase Type 5) Enzyme
Recombinant human AKR1C3 (17β-HSD5) protein (GenBank Accession No. NM_003739.6) produced in E. coli was used for screening. Recombinant protein (27 nM/1 μg/ml) was incubated in 20 mM KH2PO4, 1 mM EDTA, complete protease inhibitor cocktail, pH 7.4 with 1 μM 9-acetyl-2,3,6,7-tetrahydro-1H,5H,11H-pyrano[2,3-f]pyrido[3,2,1-ij]quinolin-11-one and 1 mM NADPH for 60 to 120 min at RT, in the presence of the potential inhibitor at 500 nM concentration. Inhibitor stock solutions were prepared in DMSO. Final concentration of DMSO was adjusted to 1% in all samples. The samples were analysed by fluorescent measurement with Tecan Spark microplate reader at wavelengths 420 nm for excitation and 510 nm for emission. Samples were evaluated against standards of 9-(1-hydroxyethyl)-2,3,6,7-tetrahydro-1H,5H,11H-pyrano[2,3-f]pyrido[3,2,1-ij]quinolin-11-one at concentrations 1 μM-10 nM. Background fluorescence was reduced from all the samples and standards. The concentrations of formed product were calculated from the standard curve with Tecan Spark Magellan software. The formed product concentrations were used to calculate conversion percentages. The inhibition percentages for the samples were calculated from the conversion percentages.
Inhibition percentages of samples were calculated using following formula: […]

[2] = biological target: T2, Recombinant human aldo-keto reductase family 1 member C2 (AKR1C2) protein (Homo sapiens, UniProt P52895); experiment: Inhibition of the aldo-keto reductase family 1 member C2, 3H-dihydrotestosterone conversion; details: inhibitor at 10 μM
T2 construct: made in house; host or cells: Sf-9 insect cells (baculovirus)
T2 sequence (P52895 1-323): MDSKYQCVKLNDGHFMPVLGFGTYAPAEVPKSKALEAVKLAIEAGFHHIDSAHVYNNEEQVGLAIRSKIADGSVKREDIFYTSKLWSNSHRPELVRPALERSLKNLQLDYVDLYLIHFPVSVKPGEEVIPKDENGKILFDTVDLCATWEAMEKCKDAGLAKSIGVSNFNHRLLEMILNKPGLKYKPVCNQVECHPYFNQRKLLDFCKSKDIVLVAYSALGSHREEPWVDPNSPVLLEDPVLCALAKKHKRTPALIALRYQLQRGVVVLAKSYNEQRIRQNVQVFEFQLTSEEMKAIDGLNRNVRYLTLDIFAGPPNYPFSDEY
Method: Inhibition of the Aldo-Keto Reductase Family 1 Member C2
Recombinant human aldo-keto reductase family 1 member C2 (AKR1C2) protein (GenBank Accession No. NM_001354.6) produced in Sf-9 insect cells with baculovirus was used for screening. Recombinant protein (13.6 nM/0.5 μg/ml) was incubated in 20 mM KH2PO4 pH 7.4, 1 mM EDTA, complete protease inhibitor tablet, 1 mM NADPH with 6.25 nM ^3H-labelled dihydrotestosterone for 45 min at +37° C., in the presence of the potential inhibitor at 10 μM concentration. Inhibitor stock solutions were prepared in DMSO. Final concentration of DMSO was adjusted to 1% in all samples. The enzyme reaction was stopped by addition of 10% trichloroacetic acid (final concentration 1%). Samples were filtrated through […] filtration plate (Merck). Analyses of samples was done with Waters Acquity UPLC H-class equipped with XBridge C18 column and XBridge VanGuard C18 guard column. Acetonitrile: 0.1% formic acid in water (42/58 v/v) with flow of 1.2 ml/min was used for mobile phase. The eluent was mixed with scintillant and the radioactivity was monitored in the eluate by a Scintillation Analyser. The conversion percentage of triated substrate (dihydrotestosterone) to tritiated product (5α-androstane-3α,17β-diol) for each sample was determined by the relative percentages of substrate and product in the chromatogram. The inhibition percentages of samples were calculated using following formula: […]

[3] = biological target: T3, 17β-Hydroxysteroid Dehydrogenase Type 2 Enzyme (17β-HSD2) (Homo sapiens, UniProt P37059); experiment: Inhibition of the 17β-hydroxysteroid dehydrogenase type 2 enzyme, 3H-testosterone conversion; details: inhibitor at 10 μM
T3 construct: made in house; host or cells: Sf-9 insect cells (baculovirus)
T3 sequence (P37059 1-387): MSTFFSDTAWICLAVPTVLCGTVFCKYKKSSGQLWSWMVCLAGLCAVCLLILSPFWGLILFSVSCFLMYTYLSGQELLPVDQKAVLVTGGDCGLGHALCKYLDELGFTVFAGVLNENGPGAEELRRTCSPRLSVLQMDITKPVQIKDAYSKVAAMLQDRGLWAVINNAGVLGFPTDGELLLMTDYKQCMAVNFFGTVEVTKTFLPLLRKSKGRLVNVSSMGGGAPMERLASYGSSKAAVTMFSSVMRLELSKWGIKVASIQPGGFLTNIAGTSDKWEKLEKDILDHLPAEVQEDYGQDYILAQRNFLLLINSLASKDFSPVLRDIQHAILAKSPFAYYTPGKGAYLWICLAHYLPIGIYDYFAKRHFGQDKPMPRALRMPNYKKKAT
Method: Inhibition of the 17β-Hydroxysteroid Dehydrogenase Type 2 Enzyme
Recombinant human 173-HSD2 protein (GenBank Accession No. NM_002153.3) produced in Sf-9 insect cells with baculovirus was used for screening.
Recombinant protein (105 nM/4.5 μg/ml) was incubated in 20 mM KH2PO4 pH 8.5, 1 mM EDTA, complete protease inhibitor cocktail, 1 mM NAD with 56.25 nM testosterone (including ^3H-labelled testosterone) for 30 min at RT, in the presence of the potential inhibitor at 10 μM concentration. Inhibitor stock solutions were prepared in DMSO. Final concentration of DMSO was adjusted to 1% in all samples. The enzyme reaction was stopped by addition of 10% trichloroacetic acid (final concentration 1%). Samples were filtrated through […] filtration plate. Analyses of samples was done with Waters Acquity UPLC H-class equipped with XBridge C18 column and XBridge VanGuard C18 guard column. Acetonitrile: 0.1% formic acid in water (42/58 v/v) with flow of 1.2 ml/min was used for mobile phase. The eluent was mixed with scintillant and the radioactivity was monitored in the eluate by a Scintillation Analyser. The conversion percentage of tritiated substrate (testosterone) to product tritiated (androstenedione) for each sample was determined by the relative percentages of substrate and product in the chromatogram. The inhibition percentages of samples were calculated using following formula: […]

Row | SMILES | inhibition at 0.5 µM [1] | inhibition at 10 µM [2] | inhibition at 10 µM [3]
1 | N#CC(=C1CCN(C(=O)N2CCOCC2)CC1)c1ccc(F)cc1 [Compound 1, 2-(4-fluorophenyl)-2-(1-(morpholine-4-carbonyl)piperidin-4-ylidene)acetonitrile] | 99% | 5% | 2%
2 | N#CC(=C1CCN(C(=O)N2CCOCC2)CC1)c1ccc(Cl)cc1 [Compound 2, 2-(4-chlorophenyl)-2-(1-(morpholine-4-carbonyl)piperidin-4-ylidene)acetonitrile] | 99% | 4% | 3%
3 | N#CC(=C1CCN(C(=O)N2CCCCC2)CC1)c1ccc(F)cc1 [Compound 3, 2-(4-fluorophenyl)-2-(1-(piperidine-1-carbonyl)piperidin-4-ylidene)acetonitrile] | 95% | 18% | 28%
4 | N#CC(=C1CCN(C(=O)N2CCC(O)CC2)CC1)c1ccc(F)cc1 [Compound 4, 2-(4-fluorophenyl)-2-(1-(4-hydroxypiperidine-1-carbonyl)piperidin-4-ylidene)acetonitrile] | 99% | 0% | 8%
5 | CCN(CC)C(=O)N1CCC(=C(C#N)c2ccc(F)cc2)CC1 [Compound 5, 4-(cyano(4-fluorophenyl)methylene)-N,N-diethylpiperidine-1-carboxamide] | 99% | 15% | 15%
6 | N#CC(=C1CCN(C(=O)N2CCCC2)CC1)c1ccc(F)cc1 [Compound 6, 2-(4-fluorophenyl)-2-(1-(pyrrolidine-1-carbonyl)piperidin-4-ylidene)acetonitrile] | 95% | 8% | 10%
7 | CO[C@@H]1CCN(C(=O)N2CCC(=C(C#N)c3ccc(F)cc3)CC2)C1 [Compound 7, (R)-2-(4-fluorophenyl)-2-(1-(3-methoxypyrrolidine-1-carbonyl)piperidin-4-ylidene)acetonitrile] | 95% | 9% | 1%
8 | COC[C@@H]1CCCN1C(=O)N1CCC(=C(C#N)c2ccc(F)cc2)CC1 [Compound 8, (S)-2-(4-fluorophenyl)-2-(1-(2-(methoxymethyl)pyrrolidine-1-carbonyl)piperidin-4-ylidene)acetonitrile] | 98% | 7% | 8%
9 | N#CC(=C1CCN(C(=O)N2CC[C@H](O)C2)CC1)c1ccc(F)cc1 [Compound 9, (S)-2-(4-fluorophenyl)-2-(1-(3-hydroxypyrrolidine-1-carbonyl)piperidin-4-ylidene)acetonitrile] | 89% | 4% | 13%
10 | N#CC(=C1CCN(C(=O)N2CCCCC2)CC1)c1cc(F)cc(F)c1 [Compound 10, 2-(3,5-difluorophenyl)-2-(1-(piperidine-1-carbonyl)piperidin-4-ylidene)acetonitrile] | 89% | 10% | 4%
11 | N#CC(=C1CCN(C(=O)N2Cc3ccccc3C2)CC1)c1ccc(F)cc1 [Compound 11, 2-(4-fluorophenyl)-2-(1-(isoindoline-2-carbonyl)piperidin-4-ylidene)acetonitrile] | 96% | 17% | 24%
12 | N#CC(=C1CCN(C(=O)N2CCc3nocc3C2)CC1)c1ccc(F)cc1 [Compound 12, 2-(4-fluorophenyl)-2-(1-(4,5,6,7-tetrahydroisoxazolo[4,3-c]pyridine-5-carbonyl)piperidin-4-ylidene)acetonitrile] | 99% | 19% | 8%
13 | N#CC(=C1CCN(C(=O)N2CCn3nncc3C2)CC1)c1ccc(F)cc1 [Compound 13, 2-(4-fluorophenyl)-2-(1-(4,5,6,7-tetrahydro-[1,2,3]triazolo[1,5-a]pyrazine-5-carbonyl)piperidin-4-ylidene)acetonitrile] | 99% | 19% | 7%
14 | CN(C(=O)N1CCC(=C(C#N)c2ccc(F)cc2)CC1)C1CCOCC1 [Compound 14, 4-(cyano(4-fluorophenyl)methylene)-N-methyl-N-(tetrahydro-2H-pyran-4-yl)piperidine-1-carboxamide] | 94% | 11% | 3%
15 | N#CC(=C1CCN(C(=O)N2C3CCC2COC3)CC1)c1ccc(F)cc1 [Compound 15, 2-(1-(3-oxa-8-azabicyclo[3.2.1]octane-8-carbonyl)piperidin-4-ylidene)-2-(4-fluorophenyl)acetonitrile] | 97% | 6% | 11%
16 | CN(C)C(=O)N1CCC(=C(C#N)c2ccc(F)cc2)CC1 [Compound 16, 4-(cyano(4-fluorophenyl)methylene)-N,N-dimethylpiperidine-1-carboxamide] | 97% | 8% | 14%
17 | COC1CCN(C(=O)N2CCC(=C(C#N)c3cccc(Cl)c3)CC2)CC1 [Compound 17, 2-(3-chlorophenyl)-2-(1-(4-methoxypiperidine-1-carbonyl)piperidin-4-ylidene)acetonitrile] | 98% | 8% | 31%
